The text below walks through data of article PMC11079064, “Discovery of a brain penetrant small molecule antagonist targeting LPA1 receptors to reduce neuroinflammation and promote remyelination in multiple sclerosis” (Scientific Reports, 2024).

Holding throughout (type): cell-based
One experiment addresses T1, human LPA1 (Homo sapiens, UniProt Q92633).
T1 construct: expressed in transfected cells
In words: Functional calcium mobilization assay. The note with it: 24 h pre-incubation prior to LPA addition; read-out: Functional LPA1 Ca^+2 mobilization. The protocol: Intracellular calcium was monitored with Fluo-4 (Molecular Devices). Dye was made up in HBSS with 0.1% (w/v) BSA and 2.5 mM probenecid. Plates were read using a FlexStation 3 (Molecular Devices, Sunnyvale, CA). Calcium response was generated by the simultaneous addition of the EC80 of LPA.
On the day of assay, media was removed and replaced with dye and 3× fresh compound in HBSS−/− with 0.1% BSA and incubated for 1 h.
30-min assay: Antagonists were added to plates after dye loading was complete at a 3× concentration in HBSS−/− with 0.1% BSA and incubated for 30 min.
Background: Calcium flux is commonly read through the fluorescence of an indicator in the cells.

The subject of experiment [1] is human cortical slice cultures. Put plainly: Human cortical slice culture, CC1+ cells by immunohistochemistry. The protocol:
(§1) Human donor brain was received 14 h after death on wet ice. Upon receipt, the brain was immediately placed into-ice cold DPBS without calcium or magnesium. Cortical regions containing gray-white border were isolated then sliced on a McIlwain tissue chopper set at 400 µm thickness. […] Slices were then processed for qPCR or immunohistochemistry.
Immunohistological evaluation of oligodendrocytes in human brain slice culture: After compound treatment, slices were fixed in 4% PFA overnight. Slices were gently lifted from the membrane insert and washed with at least five 15 min washes in DPBS containing 0.5% Triton-X 100 (0.5%-DPBS) followed by overnight incubation in primary antibodies in blocking solution. Antibodies used were CC-1 (mouse, 1:250, Millipore, Temecula, CA), Olig2 (rabbit 1:250 CellMarque). Slices were washed with at least five 15 min washes in 0.5%-DPBS followed by incubation with secondary antibodies (anti-mouse Alexa488; anti-rabbit, Alexa568, and Hoechst counterstain) in 0.5%-DPBS. All secondary antibodies were produced in goat (Invitrogen, Carlsbad, CA, Carlsbad, CA) and used at 1:250. Filters were excised from insert, mounted with Fluoromount (Millipore Sigma, St. Louis) on a microscope slide and coverslipped. 2 images per slice were acquired using a Nikon A1R confocal microscope and NIS-Elements software. Images were thresholded and counted using ImageJ.

The subject of experiment [2] is human brain meningeal fibroblasts. Put plainly: LPA-induced activation of human meningeal fibroblasts (COL1+ area). The note with it: LPA stimulation, read-out: IC50 of inhibition of increase in COL1+ area. The protocol:
(§2) Recent work from Dorrier et al., has implicated persistent fibrotic scarring in the CNS in the mouse EAE model and that the contributing cells were of meningeal origin. […] We cultured primary rat or human brain meningeal fibroblasts and applied 10 µM LPA to induce activation. Upon LPA stimulation, we saw a change in morphology that could be quantified as a change in collagen I (COL1^+) area.
Meningeal fibroblasts were obtained from IxCells (San Diego, CA) and plated at 5000 cells per well according to manufacturer's protocol. […] Cells were stained and imaged as described with rat meningeal fibroblasts.
Supplemental Figure 8. […] A. Rat primary meningeal fibroblasts were isolated and serum starved overnight. […] Cells were fixed and immunostained with a collagen 1a1 antibody (green) and counterstained with Hoechst (blue). […] Cells were fixed and immunostained with a collagen I antibody (green) and counterstained with Hoechst (blue). […] C. […] Collagen 1a1 (green), Hoechst (blue). Scale bar 50 µm. One-way ANOVA with Dunnett’s; * p<0.05, ** p<0.01, *** p<0.001, **** p<0.0001.

For experiment [3], the system named is mouse cortical brain slices. In words: Lysolecithin-treated mouse organotypic slice culture, MBP and Caspr immunostaining. The note with it: then 5 days treatment. The method, then: Slices were also evaluated using a histological endpoint. […] Caspr clustering was used as a marker for nodes of Ranvier formation which implicates the presence of functional axons that have responded to myelination[39],[40].
Immunohistological evaluation of MBP and Caspr in mouse brain slice culture: Brain slices were cultured as described above. After compound treatment, slices were fixed in 4% PFA for 30 m, blocked in 10% donkey serum, 0.2% Triton X-100, followed by overnight incubation in primary antibodies in blocking solution. Antibodies used were MBP (rat, 1:500, Millipore, Temecula, CA), Caspr (rabbit 1:250 Abcam, Fremont, CA) Tuj1 (mouse, 1:500, Biolegend, San Diego, CA). Slices were washed with 3 × 15 m PBS followed by incubation with secondary antibodies (anti-rat, Alexa488; anti-rabbit, Alexa568, anti-mouse, Alexa647, Hoechst counterstain) in blocking buffer. All secondary antibodies were produced in donkey (Invitrogen, Carlsbad, CA, Carlsbad, CA) and used at 1:250. Filters were excised from insert, mounted with Fluoromount (Millipore Sigma, St. Louis) on a microscope slide and coverslipped. […] Image analysis was performed using ImageJ. MBP was expressed as MBP surface area normalized to Hoechst cell count; Caspr was expressed as the number of Caspr puncta normalized to Tuj1 intensity.

Experiment [4] concerns rat brain meningeal fibroblasts. In words: LPA-induced activation of rat meningeal fibroblasts (COL1+ area). The note with it: LPA stimulation, read-out: IC50 of inhibition of increase in COL1+ area. The method, then:
as §2
Meningeal fibroblasts were isolated from postnatal day 8 CD-1 rats (Charles River Labs, Willington, MA). Meninges were peeled off and digested in Accutase (Thermo Fisher, Waltham, MA, Waltham, MA) for 20 min at room temperature. […] was added to stop protease activity. Digested meninges were dissociated by trituration and cells were strained through a 40 µm nylon mesh and spun down at 800 g for 15 min. The cell pellet was resuspended in DMEM + 10% FBS and plated in a T-75 flask (Corning) for 10 days. Cells were lifted with Accutase and replated into 96-well Perkin Elmer, Boston, MA Viewplates, at 15k per well. The next day, cells were starved in DMEM for 8 h. […] 1 µM LPA or vehicle were added for 5 h. […] Primary antibody was detected using a goat-anti-mouse Alexa488 secondary antibody (Invitrogen, Carlsbad, CA, 1:250) with Hoechst. Wells were imaged on Nikon A1R confocal and Col1^+ area measured normalized to cell number (Hoechst count). […]

In experiment [5] the test system is human cortical slice cultures. Put plainly: Human cortical slice culture, Mbp transcript by qPCR. The note with it: 9 days treatment; read-out: EC50 of Mbp increase by qPCR. The protocol:
Cortical slices from regions containing both white and gray matter were generated from fresh human adult donor tissue and cultured for 10 days.
as §1
Evaluation of Mbp transcript in human brain slice culture: After compound treatment, slices were immediately transferred to lysis buffer and RNA extracted using the RNEasy Mini kit (Qiagen). Reverse transcription was performed using QScript (QuantaBio) followed by qPCR with Perfecta PCR SuperMix (QuantaBio) on a StepOne Plus Thermocycler (ABI). Primers used were as follows: 18S rRNA F: […] R: […]; Mbp: […] R: […]. Cycling parameters: 95 °C 30 s, then repeat 45×: 95 °C for 5 s, 60 °C for 15 s, followed by melt curve analysis. Data was calculated using 2^−ΔΔCt , normalizing to 18S RNA and vehicle.
A general note: Real-time PCR tracks product formation cycle by cycle.

Like-named read-outs stand apart in the source and are kept apart here.

T1 sequence (Q92633 whole entry): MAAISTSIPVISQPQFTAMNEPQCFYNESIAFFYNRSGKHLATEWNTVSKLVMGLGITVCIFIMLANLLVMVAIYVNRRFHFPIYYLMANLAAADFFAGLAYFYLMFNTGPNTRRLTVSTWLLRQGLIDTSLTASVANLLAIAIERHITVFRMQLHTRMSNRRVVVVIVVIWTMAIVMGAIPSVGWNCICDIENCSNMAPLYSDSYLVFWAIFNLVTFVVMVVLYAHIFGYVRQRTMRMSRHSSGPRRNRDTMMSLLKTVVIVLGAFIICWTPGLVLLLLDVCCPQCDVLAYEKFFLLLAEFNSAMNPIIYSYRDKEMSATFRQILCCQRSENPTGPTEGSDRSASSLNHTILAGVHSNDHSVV

`COc1ccc(NC(=O)N(c2ccccc2C(C)C)C2CCC(C(=O)O)CC2)c(OC(F)F)n1` (centres unmarked) [PIPE-791]: the IC50 was found to be 0.0099 µM on human LPA1, 0.0045 µM in experiment [2] and 0.0318 µM in experiment [4]. Besides, the “CC1+ cells” value in experiment [1] (100 nM) is recorded as “significant increase”. In addition, in experiment [1] (300 nM), the “differentiation by number of CC1+ cells” value is “significant differentiation”. For the same compound, the EC50 – broadly, the concentration at which the effect is half-maximal – in experiment [3] (read-out: EC50 of MBP+ area increase) worked out at 0.074 µM; in experiment [3] (read-out: EC50 of increase in number of Caspr puncta), 0.0179 µM; in experiment [5], 0.0042 µM.
